Experimental data taken from ChEMBL document CHEMBL1149857, “Novel azaphilones, kasanosins A and B, which are specific inhibitors of eukaryotic DNA polymerases beta and lambda from Talaromyces sp” (Bioorg Med Chem, 2008).
The source made the active and inactive calls. The calls are words filed in the database; no cut-off is given here.

Columns and labels:
[1] = molecular target: Polynucleotide kinase (Enterobacteria phage T4) (UniProt P06855); assay: Inhibition of T4 polynucleotide kinase at 100 uM relative to control; details: Tequatrovirus T4
[2] = molecular target: DNA nucleotidylexotransferase (Bos taurus) (UniProt P06526); assay: Inhibition of calf terminal deoxynucleotidyl transferase
[3] = molecular target: Deoxyribonuclease-1 (Bos taurus) (UniProt P00639); assay: Inhibition of bovine deoxyribonuclease 1 at 100 uM relative to control
[4] = molecular target: T1, DNA topoisomerase 1 (Homo sapiens) (UniProt P11387); assay: Inhibition of human DNA topoisomerase 1 at 100 uM relative to control
T1 sequence (whole entry): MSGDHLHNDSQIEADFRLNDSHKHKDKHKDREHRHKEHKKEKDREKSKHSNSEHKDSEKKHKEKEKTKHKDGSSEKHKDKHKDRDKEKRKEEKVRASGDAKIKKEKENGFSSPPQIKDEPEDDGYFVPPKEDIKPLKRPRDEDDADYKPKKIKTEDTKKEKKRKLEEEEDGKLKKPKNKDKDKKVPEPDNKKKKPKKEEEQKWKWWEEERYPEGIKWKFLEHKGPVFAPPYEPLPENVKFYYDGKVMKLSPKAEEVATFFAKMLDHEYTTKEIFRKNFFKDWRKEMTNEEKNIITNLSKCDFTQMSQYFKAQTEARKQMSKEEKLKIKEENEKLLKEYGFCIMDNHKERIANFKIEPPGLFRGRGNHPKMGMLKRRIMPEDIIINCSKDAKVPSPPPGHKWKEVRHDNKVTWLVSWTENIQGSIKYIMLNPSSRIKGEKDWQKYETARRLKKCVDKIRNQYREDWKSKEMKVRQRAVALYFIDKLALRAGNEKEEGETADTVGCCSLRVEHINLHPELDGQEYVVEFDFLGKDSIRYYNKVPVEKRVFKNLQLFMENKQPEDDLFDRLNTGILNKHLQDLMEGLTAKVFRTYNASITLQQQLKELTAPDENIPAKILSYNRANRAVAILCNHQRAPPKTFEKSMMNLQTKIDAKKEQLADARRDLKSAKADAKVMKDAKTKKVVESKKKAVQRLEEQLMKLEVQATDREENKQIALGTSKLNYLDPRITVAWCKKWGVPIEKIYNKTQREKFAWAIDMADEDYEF

[5] = molecular target: Inosine-5'-monophosphate dehydrogenase 2 (Mus musculus) (UniProt P24547); assay: Inhibition of mouse IMP dehydrogenase 2 at 100 uM relative to control
Oncorhynchus masou = assay: Inhibition of cherry salmon DNA polymerase delta at 100 uM
[6] = molecular target: Human immunodeficiency virus type 1 reverse transcriptase (Human immunodeficiency virus 1) (UniProt Q72547); assay: Inhibition of HIV1 reverse transcriptase at 100 uM relative to control
DNA polymerase beta = DNA polymerase beta (Rattus norvegicus, UniProt P06766); assay: Inhibition of rat DNA polymerase beta
Thermus aquaticus = assay: Inhibition of Thermus aquaticus DNA polymerase at 100 uM
Bos taurus = species: Bos taurus; assay: Inhibition of calf DNA polymerase alpha at 100 uM relative to control
Escherichia coli = assay: Inhibition of Escherichia coli DNA polymerase 1 Klenow fragment at 100 uM
[7] = molecular target: T2, DNA polymerase subunit gamma-1 (Homo sapiens, UniProt P54098); assay: Inhibition of human DNA polymerase gamma
T2 sequence (P54098 whole entry): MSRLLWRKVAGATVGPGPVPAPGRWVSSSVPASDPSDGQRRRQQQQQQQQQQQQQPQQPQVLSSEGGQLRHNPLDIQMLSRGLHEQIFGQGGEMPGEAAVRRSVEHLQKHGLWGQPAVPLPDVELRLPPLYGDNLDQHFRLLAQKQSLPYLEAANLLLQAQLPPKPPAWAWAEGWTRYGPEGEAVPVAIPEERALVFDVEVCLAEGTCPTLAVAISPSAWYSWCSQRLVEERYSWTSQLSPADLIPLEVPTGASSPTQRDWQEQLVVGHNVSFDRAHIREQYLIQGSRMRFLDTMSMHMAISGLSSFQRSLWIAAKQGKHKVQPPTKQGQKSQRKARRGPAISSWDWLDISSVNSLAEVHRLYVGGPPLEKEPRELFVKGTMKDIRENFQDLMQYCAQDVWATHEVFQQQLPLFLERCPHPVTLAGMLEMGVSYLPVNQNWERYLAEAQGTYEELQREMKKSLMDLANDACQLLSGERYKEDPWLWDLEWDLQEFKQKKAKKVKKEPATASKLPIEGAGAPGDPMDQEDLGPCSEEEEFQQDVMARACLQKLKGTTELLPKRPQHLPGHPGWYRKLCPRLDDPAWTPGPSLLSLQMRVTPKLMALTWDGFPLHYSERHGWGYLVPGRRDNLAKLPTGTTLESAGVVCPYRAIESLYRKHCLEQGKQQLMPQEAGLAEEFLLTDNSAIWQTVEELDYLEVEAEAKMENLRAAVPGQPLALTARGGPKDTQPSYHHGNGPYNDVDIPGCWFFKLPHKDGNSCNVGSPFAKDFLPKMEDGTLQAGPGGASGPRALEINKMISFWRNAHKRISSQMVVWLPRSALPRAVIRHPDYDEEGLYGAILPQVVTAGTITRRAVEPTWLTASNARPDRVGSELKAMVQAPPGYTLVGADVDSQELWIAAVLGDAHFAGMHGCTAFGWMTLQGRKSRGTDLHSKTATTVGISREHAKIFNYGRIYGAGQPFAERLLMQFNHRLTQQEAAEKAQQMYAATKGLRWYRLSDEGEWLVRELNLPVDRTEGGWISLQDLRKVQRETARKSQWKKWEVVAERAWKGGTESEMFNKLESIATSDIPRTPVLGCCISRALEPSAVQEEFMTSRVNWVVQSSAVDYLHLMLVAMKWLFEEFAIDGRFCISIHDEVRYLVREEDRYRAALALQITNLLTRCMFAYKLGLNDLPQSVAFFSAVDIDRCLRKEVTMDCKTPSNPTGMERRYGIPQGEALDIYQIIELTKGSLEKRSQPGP

Tequatrovirus T4 = assay: Inhibition of T4 DNA polymerase at 100 uM
[8] = molecular target: T3, DNA polymerase subunit gamma-1 (Homo sapiens) (UniProt P54098); assay: Inhibition of human DNA polymerase gamma at 100 uM
T3 sequence (whole entry): T2 sequence (P54098 whole entry)

Brassica oleracea = assay: Inhibition of cauliflower DNA polymerase alpha at 100 uM
[9] = molecular target: DNA topoisomerase 2-alpha (Homo sapiens) (UniProt P11388); assay: Inhibition of human DNA topoisomerase 2 at 100 uM relative to control
[10] = molecular target: Telomerase reverse transcriptase (Homo sapiens) (UniProt O14746); assay: Inhibition of human telomerase at 100 uM relative to control
[11] = molecular target: DNA polymerase beta (Rattus norvegicus) (UniProt P06766); assay: Inhibition of rat DNA polymerase beta at 100 uM
Escherichia phage T7 = assay: Inhibition of T7 RNA polymerase […] at 100 uM relative to control

Chain of Polynucleotide kinase (Enterobacteria phage T4) (P06855 whole entry): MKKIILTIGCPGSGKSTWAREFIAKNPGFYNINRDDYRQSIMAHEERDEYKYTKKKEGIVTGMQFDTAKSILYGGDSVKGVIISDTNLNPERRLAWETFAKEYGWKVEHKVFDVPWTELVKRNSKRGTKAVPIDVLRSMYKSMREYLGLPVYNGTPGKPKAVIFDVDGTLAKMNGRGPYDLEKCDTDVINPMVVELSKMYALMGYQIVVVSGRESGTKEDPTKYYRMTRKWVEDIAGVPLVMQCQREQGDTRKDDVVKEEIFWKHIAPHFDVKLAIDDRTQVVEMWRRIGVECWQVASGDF
Chain of Deoxyribonuclease-1 (Bos taurus) (P00639 whole entry): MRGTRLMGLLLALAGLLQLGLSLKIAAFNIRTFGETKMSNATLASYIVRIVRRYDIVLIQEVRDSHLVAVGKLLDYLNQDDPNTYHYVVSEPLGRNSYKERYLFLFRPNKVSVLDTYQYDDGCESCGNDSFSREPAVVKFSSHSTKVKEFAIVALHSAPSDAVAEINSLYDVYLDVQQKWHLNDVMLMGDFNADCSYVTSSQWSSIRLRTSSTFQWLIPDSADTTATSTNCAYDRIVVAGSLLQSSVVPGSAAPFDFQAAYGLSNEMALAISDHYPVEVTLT
Chain of DNA nucleotidylexotransferase (Bos taurus) (P06526 whole entry): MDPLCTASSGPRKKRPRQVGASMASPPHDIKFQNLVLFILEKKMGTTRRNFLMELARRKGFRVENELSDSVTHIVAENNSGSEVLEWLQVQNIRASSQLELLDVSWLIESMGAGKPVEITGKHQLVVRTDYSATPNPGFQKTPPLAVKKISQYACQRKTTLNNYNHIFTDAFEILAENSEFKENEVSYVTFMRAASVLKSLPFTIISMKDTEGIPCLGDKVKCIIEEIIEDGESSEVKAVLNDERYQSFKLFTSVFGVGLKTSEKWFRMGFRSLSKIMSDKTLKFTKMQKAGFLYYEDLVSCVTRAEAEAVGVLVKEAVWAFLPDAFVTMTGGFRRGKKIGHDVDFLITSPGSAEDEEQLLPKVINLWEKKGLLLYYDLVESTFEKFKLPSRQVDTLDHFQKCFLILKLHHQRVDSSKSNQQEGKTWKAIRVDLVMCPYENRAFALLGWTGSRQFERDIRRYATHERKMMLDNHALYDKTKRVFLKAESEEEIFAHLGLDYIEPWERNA
Chain of Inosine-5'-monophosphate dehydrogenase 2 (Mus musculus) (P24547 whole entry, looked up): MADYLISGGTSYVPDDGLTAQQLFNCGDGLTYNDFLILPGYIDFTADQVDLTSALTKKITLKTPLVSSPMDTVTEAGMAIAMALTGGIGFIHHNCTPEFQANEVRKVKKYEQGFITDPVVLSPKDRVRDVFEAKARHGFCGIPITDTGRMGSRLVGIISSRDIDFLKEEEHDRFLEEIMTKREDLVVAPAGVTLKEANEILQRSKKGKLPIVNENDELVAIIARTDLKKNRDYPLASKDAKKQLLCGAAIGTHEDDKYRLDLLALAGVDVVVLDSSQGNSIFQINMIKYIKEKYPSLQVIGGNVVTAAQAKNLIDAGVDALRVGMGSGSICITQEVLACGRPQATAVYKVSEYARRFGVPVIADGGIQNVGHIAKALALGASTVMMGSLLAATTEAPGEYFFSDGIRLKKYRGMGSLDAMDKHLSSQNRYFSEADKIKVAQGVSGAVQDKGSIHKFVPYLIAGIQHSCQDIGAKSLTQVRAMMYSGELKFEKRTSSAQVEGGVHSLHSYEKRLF
Chain of Telomerase reverse transcriptase (Homo sapiens) (O14746 whole entry): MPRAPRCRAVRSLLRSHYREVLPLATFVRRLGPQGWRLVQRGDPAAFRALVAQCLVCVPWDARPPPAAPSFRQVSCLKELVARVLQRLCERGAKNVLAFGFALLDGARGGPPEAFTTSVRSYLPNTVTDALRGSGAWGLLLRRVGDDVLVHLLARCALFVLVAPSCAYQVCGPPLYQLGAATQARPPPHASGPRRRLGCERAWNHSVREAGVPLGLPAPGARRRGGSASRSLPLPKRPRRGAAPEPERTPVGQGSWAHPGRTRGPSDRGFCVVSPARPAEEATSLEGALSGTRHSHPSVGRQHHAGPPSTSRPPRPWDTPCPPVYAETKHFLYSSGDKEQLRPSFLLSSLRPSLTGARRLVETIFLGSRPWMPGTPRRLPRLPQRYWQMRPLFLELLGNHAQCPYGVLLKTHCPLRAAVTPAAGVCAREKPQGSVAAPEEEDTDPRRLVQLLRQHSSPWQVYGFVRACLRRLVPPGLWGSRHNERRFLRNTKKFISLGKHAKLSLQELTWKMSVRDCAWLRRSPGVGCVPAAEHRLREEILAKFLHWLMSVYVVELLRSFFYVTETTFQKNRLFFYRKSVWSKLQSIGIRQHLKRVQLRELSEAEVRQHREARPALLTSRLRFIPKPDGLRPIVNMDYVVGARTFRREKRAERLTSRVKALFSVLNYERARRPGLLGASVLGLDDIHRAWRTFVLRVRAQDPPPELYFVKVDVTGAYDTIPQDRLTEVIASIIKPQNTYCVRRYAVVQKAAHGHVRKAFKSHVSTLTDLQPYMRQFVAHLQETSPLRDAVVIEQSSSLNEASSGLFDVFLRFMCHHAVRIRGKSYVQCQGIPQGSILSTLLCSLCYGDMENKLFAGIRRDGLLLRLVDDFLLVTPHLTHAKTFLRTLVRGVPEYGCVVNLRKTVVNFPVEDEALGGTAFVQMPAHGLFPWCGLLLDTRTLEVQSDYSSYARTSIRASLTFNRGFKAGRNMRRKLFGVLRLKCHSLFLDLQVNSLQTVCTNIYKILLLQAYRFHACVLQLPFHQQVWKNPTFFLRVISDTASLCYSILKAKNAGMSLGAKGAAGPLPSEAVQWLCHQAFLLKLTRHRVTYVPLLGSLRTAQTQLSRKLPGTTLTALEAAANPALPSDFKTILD
Chain of DNA topoisomerase 2-alpha (Homo sapiens) (P11388 whole entry): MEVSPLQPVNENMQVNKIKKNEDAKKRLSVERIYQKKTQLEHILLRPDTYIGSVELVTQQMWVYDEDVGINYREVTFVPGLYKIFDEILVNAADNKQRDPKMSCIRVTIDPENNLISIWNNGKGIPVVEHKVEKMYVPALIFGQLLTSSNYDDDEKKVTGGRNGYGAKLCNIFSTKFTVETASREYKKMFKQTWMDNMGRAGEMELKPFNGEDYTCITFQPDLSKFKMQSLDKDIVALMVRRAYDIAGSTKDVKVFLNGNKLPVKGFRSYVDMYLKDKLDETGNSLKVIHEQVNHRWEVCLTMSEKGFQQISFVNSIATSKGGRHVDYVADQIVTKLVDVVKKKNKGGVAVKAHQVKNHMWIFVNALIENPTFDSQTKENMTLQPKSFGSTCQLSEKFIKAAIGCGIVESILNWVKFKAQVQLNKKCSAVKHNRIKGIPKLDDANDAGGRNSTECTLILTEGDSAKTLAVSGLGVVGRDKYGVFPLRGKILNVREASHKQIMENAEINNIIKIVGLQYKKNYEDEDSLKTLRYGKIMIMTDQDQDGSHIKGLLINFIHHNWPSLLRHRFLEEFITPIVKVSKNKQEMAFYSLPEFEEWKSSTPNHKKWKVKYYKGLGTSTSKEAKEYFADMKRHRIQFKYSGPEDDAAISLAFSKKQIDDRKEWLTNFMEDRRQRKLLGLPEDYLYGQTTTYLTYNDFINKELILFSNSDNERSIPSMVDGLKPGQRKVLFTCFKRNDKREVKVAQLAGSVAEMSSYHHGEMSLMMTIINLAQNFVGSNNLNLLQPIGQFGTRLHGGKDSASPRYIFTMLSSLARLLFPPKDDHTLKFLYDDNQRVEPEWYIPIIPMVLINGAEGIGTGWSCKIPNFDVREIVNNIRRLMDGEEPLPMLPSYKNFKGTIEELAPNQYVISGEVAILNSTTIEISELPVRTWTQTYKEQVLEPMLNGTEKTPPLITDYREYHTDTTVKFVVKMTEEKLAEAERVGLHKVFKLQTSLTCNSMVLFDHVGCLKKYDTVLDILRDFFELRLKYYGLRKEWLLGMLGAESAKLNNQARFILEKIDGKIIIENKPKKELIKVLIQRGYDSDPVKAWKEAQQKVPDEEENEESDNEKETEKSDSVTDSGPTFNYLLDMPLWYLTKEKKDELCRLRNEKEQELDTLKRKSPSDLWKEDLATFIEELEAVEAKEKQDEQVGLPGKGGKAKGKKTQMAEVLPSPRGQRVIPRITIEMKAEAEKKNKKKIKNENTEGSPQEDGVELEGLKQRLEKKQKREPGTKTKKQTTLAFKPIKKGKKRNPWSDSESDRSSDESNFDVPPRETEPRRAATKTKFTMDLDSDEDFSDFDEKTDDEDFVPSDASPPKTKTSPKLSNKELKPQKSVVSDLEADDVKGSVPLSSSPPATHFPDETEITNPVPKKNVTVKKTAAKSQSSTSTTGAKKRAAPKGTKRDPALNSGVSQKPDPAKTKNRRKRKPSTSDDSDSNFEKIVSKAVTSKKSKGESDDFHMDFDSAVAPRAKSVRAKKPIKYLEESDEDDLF

Row | Activity [1] | Activity [2] | Activity [3] | Activity [4] | Activity [5] | Activity (Oncorhynchus masou) | Activity [6] | IC50 (DNA polymerase beta) | Activity (Thermus aquaticus) | Activity (Bos taurus) | Activity (Escherichia coli) | IC50 [7] | Activity (Tequatrovirus T4) | Activity [8] | Activity (Brassica oleracea) | Activity [9] | Activity [10] | Activity [11] | Activity (Escherichia phage T7) | Compound
1 | inactive | inactive | inactive | inactive | inactive | inactive | inactive | 27.3 µM | inactive | inactive | inactive | 35 µM | inactive | Active | inactive | inactive | inactive | Active | inactive | COc1cc(C)c(C(=O)O[C@H]2CC3=C(COC(/C=C/CO)=C3)C(=O)[C@@]2(C)O)c(O)c1 [KASANOSIN A]
2 | inactive | inactive | inactive | inactive | inactive | inactive | inactive | 60.1 µM | inactive | inactive | inactive | 72.9 µM | inactive | Active | inactive | inactive | inactive | Active | inactive | COc1cc(C)c(C(=O)O[C@]2(C)C(=O)C3=C(C=C(/C=C/CO)OC3)C[C@@H]2O)c(O)c1 [KASANOSIN B]
